Source: US20250064804A1, “COMBINATION THERAPY FOR TREATING ABNORMAL CELL GROWTH” (Verastem, Inc., priority 2021, published 2025)

Key:
[1] = test system: Human KRAS mutant pancreatic cancer cell lines stably expressing a tandem fluorescent GFP-LC3-RFP-LC3ΔG reporter; test: Autophagic flux (GFP-LC3-RFP-LC3ΔG reporter, flow cytometry); format: cell-based; conditions: 1 μM avutometinib, 24 hours, vs vehicle (DMSO); all 3 cell lines tested; 2D conditions
Description: Human KRAS mutant pancreatic cancer cell lines stably expressing a tandem fluorescent GFP-LC3-RFP-LC3ΔG reporter were grown in 2D conditions. Briefly, cells were seeded in 96-well plates and after an overnight incubation (17-22 hours), cells were treated with 1 μM of the RAF/MEK clamp avutometinib (VS-6766) for 24 hours. Following treatment, cells were collected and changes in autophagic flux were measured by flow cytometry. Autophagic flux was quantified by calculating the ratio of RFP/GFP in cell lines tested. Autophagic flux was assessed in a panel of 3 human KRAS mutant pancreatic cancer cell lines stably expressing a tandem fluorescent GFP-LC3-RFP-LC3ΔG reporter (FIG. 1). […] In FIG. 1, human KRAS mutant pancreatic cancer cell lines stably expressing a tandem fluorescent GFP-LC3-RFP-LC3ΔG reporter were treated with vehicle (DMSO) or avutometinib for 24 hours. Following treatment, cells were collected and changes in autophagic flux were measured by flow cytometry. Autophagic flux was quantified by calculating the ratio of RFP/GFP in cell lines tested.

[2] = test system: human KRAS mutant pancreatic cancer cell lines; test: Proliferation assay (live cell counting) with Bliss synergy analysis; format: cell-based; conditions: 5 days, panel of 4 cell lines, 2D conditions
Description: Parental human KRAS mutant pancreatic cancer cell lines were grown in 2D conditions. Briefly, cells were seeded in 96-well plates and after an overnight incubation (17-22 hours), cells were treated with the RAF/MEK clamp avutometinib (VS-6766)+/− the autophagy pathway inhibitor chloroquine (CQ) or apilimod (AP) for 5 days. Following drug treatment, live cell counting was performed and plotted to quantify effects on proliferation. Bliss synergy analysis were performed to calculate synergy scores between avutometinib+chloroquine and avutometinib+apilimod.
Proliferation assays were performed to determine whether chloroquine (CQ) or apilimod (AP) augmented the anti-proliferative activity of avutometinib in a panel of 4 human KRAS mutant pancreatic cancer cell lines (FIG. 2). Following drug treatment, live cell counting was performed and plotted to quantify effects on proliferation. Heatmaps indicating BLISS synergy scores are shown (Red=synergy, white=additivity, green=antagonism).

With `CNS(=O)(=O)Nc1nccc(Cc2c(C)c3ccc(Oc4ncccn4)cc3oc2=O)c1F` [avutometinib] the “increase of autophagic flux (ratio of RFP/GFP)” value [1] was “two-to six”, the “Bliss synergy with apilimod in reducing cell viability” value ([2]; avutometinib + apilimod (AP)) was “synergistic” and the “Bliss synergy with chloroquine in reducing cell viability” value ([2]; avutometinib + chloroquine (CQ)) was “synergistic”.
